For this assay, the target named is High affinity nerve growth factor receptor (Homo sapiens, UniProt P04629). As to the kind of experiment: Evaluation of Binding Activity for Human TrkA Protein: Measurement was carried out using TrkA LanthaScreen (registered trademark) Eu Kinase Binding Assay (ThermoFisher SCIENTIFIC). To a 384 well plate (Corning), 2.5 μL of the test compound having various concentrations and diluted with Kinase buffer (ThermoFisher SCIENTIFIC) and 2.5 μL of 15 nM TrkA enzyme (ThermoFisher SCIENTIFIC) were added. Moreover, […] Eu-anti-His Tag antibody (ThermoFisher SCIENTIFIC) and 5 μL of 30 nM Kinase (registered trademark) Tracer 236 (ThermoFisher SCIENTIFIC) were added, followed by reaction at room temperature for 60 minutes. After the reaction, the fluorescence intensity of Europium (Emission wavelength 615 nm) and TR-FRET (Emission wavelength 665 nm) with an excitation wavelength of 340 nm were measured with EnVision 2100 (PerkinElmer) to calculate the fluorescence ratio as the amount of the test compound and the TrkA enzyme bonded. The inhibitory activity (IC50 value) of each test compound was calculated with the fluorescence ratio of the well to which a solvent was added instead of the test compound being 0% and the fluorescence ratio of the well without addition of the TrkA protein being 100%.

The structures appear in SMILES notation. A value given as a limit tells only on which side of the number the result lay.

High affinity nerve growth factor receptor, sequence (P04629 whole entry): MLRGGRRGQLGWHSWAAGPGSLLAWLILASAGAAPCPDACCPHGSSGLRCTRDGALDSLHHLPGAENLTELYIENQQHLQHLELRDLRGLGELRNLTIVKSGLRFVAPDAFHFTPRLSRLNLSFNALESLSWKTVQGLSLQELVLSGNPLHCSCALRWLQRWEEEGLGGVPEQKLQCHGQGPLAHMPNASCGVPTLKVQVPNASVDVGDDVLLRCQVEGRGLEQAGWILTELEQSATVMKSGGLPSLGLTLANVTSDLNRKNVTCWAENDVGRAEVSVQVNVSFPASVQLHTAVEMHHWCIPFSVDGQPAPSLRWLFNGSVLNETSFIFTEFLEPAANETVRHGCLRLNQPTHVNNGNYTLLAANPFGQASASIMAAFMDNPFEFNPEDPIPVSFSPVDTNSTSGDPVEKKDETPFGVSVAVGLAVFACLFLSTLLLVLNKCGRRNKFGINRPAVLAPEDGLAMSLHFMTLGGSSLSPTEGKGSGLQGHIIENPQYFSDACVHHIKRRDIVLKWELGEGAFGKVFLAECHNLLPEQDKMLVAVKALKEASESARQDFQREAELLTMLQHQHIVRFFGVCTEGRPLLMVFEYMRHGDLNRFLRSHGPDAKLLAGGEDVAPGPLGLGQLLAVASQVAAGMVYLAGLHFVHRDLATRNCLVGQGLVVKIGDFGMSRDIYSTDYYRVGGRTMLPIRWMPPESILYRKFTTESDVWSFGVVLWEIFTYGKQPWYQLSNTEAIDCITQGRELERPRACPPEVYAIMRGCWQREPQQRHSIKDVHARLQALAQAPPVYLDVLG

On to `Cc1ncc(-c2nc(-c3ccccc3)c(NC(=O)N[C@H]3c4ccc(F)cc4C(C)(C)C[C@H]3O)cc2C)cn1`, for which the IC50 is under 50 nM.
Regarding `Cc1ncc(-c2nc(-c3ccccc3)c(NC(=O)N[C@H]3c4cc(F)ccc4C(C)(C)C[C@H]3O)cc2C)cn1`, the IC50 was under 50 nM.

(Values after ChEMBL document CHEMBL5727275, “Tetrahydronaphthyl urea derivative” (2019).)
